# Measured values reported in US20130315843A1, “COMPOSITION FOR REDUCTION OF TRPA1 AND TRPV1 SENSATIONS” (priority 2012, published 2013).
# Structures can show the parent of a compound that is named as a salt.
# Biological target: T1, human TRPV1 (Homo sapiens, UniProt Q8NER1)
# Test: FLIPR Ca2+ assay, reduction of L-Menthol activation of TRPV1
# Settings: antagonist 100 μM against 1 mM L-Menthol
# Method: To determine whether TRPV1 was activated, the intracellular calcium ion (Ca^+2) levels from cells transfected with the TRPV1 receptor gene was measured. HEK-239 cells stably transfected with human TRPV1 were grown in 15 ml growth medium [high glucose DMEM (Dulbecco's Modification of Eagle's Medium) supplemented with 10% FBS (fetal bovine serum), 100 g/ml Penicillin/streptomycin, 100 g/ml G418] in a 75 Cm2 flask for 3 days at 33° C. in a mammalian cell culture incubator set at 5% CO2. Cells were detached with addition of 10 ml of PBS (phosphate buffered saline) by hand shaking gently. Cells were transferred to a 50 ml tube and centrifuged at 850 rpm for 3 minutes to remove PBS. After centrifugation, a pellet of cells formed in the bottom of the tube separating them from the supernatant solution. The supernatant was discarded and the cell pellet suspended in 1 ml of fresh growth medium to which 5 μl (12.5 g) of Fluo-4 AM (Molecular Probes, Inc., Eugene, Oreg.) calcium indicator was added and incubated for 30 minutes with gentle shaking.
# The pelleted cells were re-suspended in 10 ml assay buffer and 90 μl aliquots (˜50,000 cells) per well delivered to a 96-well assay plate containing 10 μl of test compounds (1 mM in assay buffer, final concentration 100 μM) or buffer control and incubated at room temperature for 30 minutes. After 30 minutes, the plate was placed into a fluorometric imaging plate reader (FLIPR384 from Molecular Devices) and basal fluorescence recorded (excitation wave length 488 nm and emission wave length 510 nm). Then 20 μl of the compound being tested as a TRPV1 receptor activator was added and fluorescence recorded. […] It may be no difference (no effect), or negative (means antagonist or desensitizer) or positive (enhancer, also known as positive allosteric modulator). […] To determine if a compound was an antagonist or a desensitizer, the direct effect of a test compound was determined. For determining the direct effect of test compounds on TRPV1, 100 μl aliquots (˜50,000 cells) of cells prepared as described above were delivered to a 96-well assay plate and basal fluorescence recorded as noted above. Then 20 μl of the compound being tested as a TRPV1 receptor activator was added and fluorescence recorded. If any increase in fluorescence over background was noted, then the compound was considered an agonist. The agonist activity was expressed relative to that observed with a benchmark agonist such as 350 nM Capsaicin for TRPV1.
# 100 μM of antagonist was tested against 1 mM of L-Menthol to determine the level of reduced TRPV1 receptor activation by L-Menthol. Each antagonist compound was run with 1 mM of L-Menthol as a control and the antagonist activity of each compound was determined by comparing the Ca^2+ levels of the control with the antagonist compound being tested.
# T1 sequence (Q8NER1 whole entry): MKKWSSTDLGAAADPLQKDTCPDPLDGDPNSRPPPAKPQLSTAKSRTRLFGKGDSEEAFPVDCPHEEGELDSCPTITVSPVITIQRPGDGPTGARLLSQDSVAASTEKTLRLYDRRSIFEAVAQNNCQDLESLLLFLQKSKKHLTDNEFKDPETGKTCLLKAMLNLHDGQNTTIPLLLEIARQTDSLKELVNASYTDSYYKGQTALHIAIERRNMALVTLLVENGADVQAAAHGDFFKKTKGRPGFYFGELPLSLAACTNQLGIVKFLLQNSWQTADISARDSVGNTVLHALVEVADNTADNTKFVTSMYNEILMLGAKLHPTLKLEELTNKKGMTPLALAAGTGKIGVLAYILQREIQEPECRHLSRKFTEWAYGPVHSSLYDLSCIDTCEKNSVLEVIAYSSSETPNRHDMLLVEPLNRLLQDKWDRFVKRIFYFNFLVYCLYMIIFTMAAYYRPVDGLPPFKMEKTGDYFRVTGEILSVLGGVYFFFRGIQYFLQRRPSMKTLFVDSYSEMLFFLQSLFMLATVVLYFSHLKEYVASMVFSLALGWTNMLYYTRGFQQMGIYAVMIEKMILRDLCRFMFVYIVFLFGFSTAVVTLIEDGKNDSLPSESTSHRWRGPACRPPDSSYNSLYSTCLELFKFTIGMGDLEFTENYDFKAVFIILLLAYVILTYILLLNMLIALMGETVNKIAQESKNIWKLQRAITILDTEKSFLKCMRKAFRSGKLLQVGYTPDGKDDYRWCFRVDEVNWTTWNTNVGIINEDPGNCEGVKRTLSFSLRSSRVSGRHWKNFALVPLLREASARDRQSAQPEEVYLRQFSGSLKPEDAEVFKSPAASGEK
Compound,Average Ca2+ Counts [Counts],% Reduction of L-Menthol TRPV1 Activation [%]
COc1nccnc1CC(C)C [2-isobutyl-3-methoxypyrazine],4020.0,–
C=CCOC(=O)CCC1CCCCC1 [allyl cyclohexanepropionate],4895.5,–
CCOC(=O)C1OC1c1ccccc1 (stereo not shown) [ethyl 3-phenylglycidate],1987.0,50.8
C=CCCCC(=O)OCC [ethyl 5-hexenoate],1084.0,–
CCCCCC(=O)OCC [ethyl hexanoate],3655.5,–
CCCCCCCC/C=C\CCCCCCCC(=O)OCC [ethyl oleate],1431.3,–
CCOC(=O)CC [ethyl propionate],2712.0,–
CCC/C=C/C(=O)OCC [ethyl trans-2-hexenoate],1102.7,–
CCCCC/C=C/CCC(=O)OCC [ethyl trans-4-decenoate],1454.3,–
COc1cc(/C=C/C(=O)O)ccc1O [ferulic acid],1242.0,–
CCCCCCCCCCCCCCCCOC(=O)C(C)O (stereo not shown) [hexadecyl lactate],1047.0,–
"CCCOC(=O)CCCCC(=O)OCCC [hexanedioic acid, dipropyl ester]",2964.0,–
CCCCCC(=O)OCC(C)C [isobutyl hexanoate],3443.5,–
CC(C)CCOC=O [isopentyl formate],1451.7,–
C/C=C(\C)C(=O)OC(C)C [isopropyl tiglate],4497.5,–
COC(=O)c1ccccc1NC(C)=O [methyl 2-(acetylamino)benzoate],1178.3,–

Compound,Average Ca2+ Counts [Counts],% Reduction of L-Menthol TRPV1 Activation [%]
CCCC(C)C(=O)OC (stereo not shown) [methyl 2-methylpentanoate],1529.3,–
COC(=O)CCSC [methyl 3-(methylthio)propionate],998.7,–
CCCCCCCCSC [methyl n-octyl sulfide],1120.3,–
COC(=O)c1cccnc1 [methyl nicotinate],1483.7,–
COc1ccccc1C [o-methylanisole],1107.3,–
CCCCCCCC=O [octanal],2759.0,–
C1CNCCN1 [piperazine],3405.0,–
CCC/C=C/COC(=O)CC [propionic acid trans-2-hexen-1-yl ester],1128.3,–
CCCOC(=O)C(C)=O [propyl pyruvate],2386.5,–
CC(=O)C=O [pyruvic aldehyde],1504.0,22.3
C=C[C@H]1C[N@@]2CC[C@H]1C[C@H]2[C@H](O)c1ccnc2ccc(OC)cc12 [quinine hydrochloride dihydrate],1505.3,–
CCC(C)SSC(C)CC (stereo not shown) [sec-butyl disulfide],3652.0,–
CC(=O)OCC1CCCO1 (stereo not shown) [tetrahydrofurfuryl acetate],1269.3,–
CCC/C=C/COC(C)=O [trans-2-hexenyl acetate],1119.0,–
iron naphthenate,2748.5,31.9

# Same assay, conditions: read-out: % Reduction of L-Menthol TRPV1 Activation
row,Compound,inhibition at 100 µM [%]
1,COc1nccnc1CC(C)C [2-isobutyl-3-methoxypyrazine],37.2
2,C=CCOC(=O)CCC1CCCCC1 [allyl cyclohexanepropionate],23.5
3,C=CCCCC(=O)OCC [ethyl 5-hexenoate],41.8
4,CCCCCC(=O)OCC [ethyl hexanoate],42.9
5,CCCCCCCC/C=C\CCCCCCCC(=O)OCC [ethyl oleate],25.7
6,CCOC(=O)CC [ethyl propionate],32.8
7,CCC/C=C/C(=O)OCC [ethyl trans-2-hexenoate],40.9
8,CCCCC/C=C/CCC(=O)OCC [ethyl trans-4-decenoate],24.6
9,COc1cc(/C=C/C(=O)O)ccc1O [ferulic acid],34.5
10,CCCCCCCCCCCCCCCCOC(=O)C(C)O (stereo not shown) [hexadecyl lactate],43.5
11,"CCCOC(=O)CCCCC(=O)OCCC [hexanedioic acid, dipropyl ester]",26.6
12,CCCCCC(=O)OCC(C)C [isobutyl hexanoate],25.8
13,CC(C)CCOC=O [isopentyl formate],24.8
14,C/C=C(\C)C(=O)OC(C)C [isopropyl tiglate],29.7
15,COC(=O)c1ccccc1NC(C)=O [methyl 2-(acetylamino)benzoate],37.4
16,CCCC(C)C(=O)OC (stereo not shown) [methyl 2-methylpentanoate],21.2
17,COC(=O)CCSC [methyl 3-(methylthio)propionate],45.7
18,CCCCCCCCSC [methyl n-octyl sulfide],40.1
19,COC(=O)c1cccnc1 [methyl nicotinate],23.3
20,COc1ccccc1C [o-methylanisole],40.7
21,CCCCCCCC=O [octanal],31.6
22,C1CNCCN1 [piperazine],46.8
23,CCC/C=C/COC(=O)CC [propionic acid trans-2-hexen-1-yl ester],39.7
24,CCCOC(=O)C(C)=O [propyl pyruvate],40.9
25,C=C[C@H]1C[N@@]2CC[C@H]1C[C@H]2[C@H](O)c1ccnc2ccc(OC)cc12 [quinine hydrochloride dihydrate],22.3
26,CCC(C)SSC(C)CC (stereo not shown) [sec-butyl disulfide],21.3
27,CC(=O)OCC1CCCO1 (stereo not shown) [tetrahydrofurfuryl acetate],33.2
28,CCC/C=C/COC(C)=O [trans-2-hexenyl acetate],40.2

# Biological target: T1, human TRPV1
# Test: FLIPR Ca2+ assay, reduction of hydrogen peroxide activation of TRPV1
# Format: cell-based
# Design: expressed in transfected cells
# Settings: antagonist 100 μM against 500 μM hydrogen peroxide
# Method: Cells were detached with addition of 10 ml of PBS (phosphate buffered saline) by hand shaking gently. Cells were transferred to a 50 ml tube and centrifuged at 850 rpm for 3 minutes to remove PBS.
# The pelleted cells were re-suspended in 10 ml assay buffer and 90 μl aliquots (˜50,000 cells) per well delivered to a 96-well assay plate containing 10 μl of test compounds (1 mM in assay buffer, […]) or buffer control and incubated at room temperature for 30 minutes.
row,Compound,% Reduction of Hydrogen Peroxide TRPV1 Activation [%]
1,CC1=CC(=O)[C@@H](C(C)C)CC1 [L-Piperitone],58

# Biological target: T2, human TRPA1 (Homo sapiens, UniProt O75762)
# Test: FLIPR Ca2+ assay, reduction of hydrogen peroxide activation of TRPA1
# Format: cell-based
# Design: expressed in transfected cells
# Settings: not given
# Method: After centrifugation, a pellet of cells was formed in the bottom of the tube separating them from the supernatant solution.
# The pelleted cells were re-suspended in 10 ml assay buffer and 90 μl aliquots (˜50,000 cells) per well delivered to a 96-well assay plate containing 10 μl of test compounds ([…]) or buffer control and incubated at room temperature for 30 minutes.
# T2 sequence (O75762 whole entry): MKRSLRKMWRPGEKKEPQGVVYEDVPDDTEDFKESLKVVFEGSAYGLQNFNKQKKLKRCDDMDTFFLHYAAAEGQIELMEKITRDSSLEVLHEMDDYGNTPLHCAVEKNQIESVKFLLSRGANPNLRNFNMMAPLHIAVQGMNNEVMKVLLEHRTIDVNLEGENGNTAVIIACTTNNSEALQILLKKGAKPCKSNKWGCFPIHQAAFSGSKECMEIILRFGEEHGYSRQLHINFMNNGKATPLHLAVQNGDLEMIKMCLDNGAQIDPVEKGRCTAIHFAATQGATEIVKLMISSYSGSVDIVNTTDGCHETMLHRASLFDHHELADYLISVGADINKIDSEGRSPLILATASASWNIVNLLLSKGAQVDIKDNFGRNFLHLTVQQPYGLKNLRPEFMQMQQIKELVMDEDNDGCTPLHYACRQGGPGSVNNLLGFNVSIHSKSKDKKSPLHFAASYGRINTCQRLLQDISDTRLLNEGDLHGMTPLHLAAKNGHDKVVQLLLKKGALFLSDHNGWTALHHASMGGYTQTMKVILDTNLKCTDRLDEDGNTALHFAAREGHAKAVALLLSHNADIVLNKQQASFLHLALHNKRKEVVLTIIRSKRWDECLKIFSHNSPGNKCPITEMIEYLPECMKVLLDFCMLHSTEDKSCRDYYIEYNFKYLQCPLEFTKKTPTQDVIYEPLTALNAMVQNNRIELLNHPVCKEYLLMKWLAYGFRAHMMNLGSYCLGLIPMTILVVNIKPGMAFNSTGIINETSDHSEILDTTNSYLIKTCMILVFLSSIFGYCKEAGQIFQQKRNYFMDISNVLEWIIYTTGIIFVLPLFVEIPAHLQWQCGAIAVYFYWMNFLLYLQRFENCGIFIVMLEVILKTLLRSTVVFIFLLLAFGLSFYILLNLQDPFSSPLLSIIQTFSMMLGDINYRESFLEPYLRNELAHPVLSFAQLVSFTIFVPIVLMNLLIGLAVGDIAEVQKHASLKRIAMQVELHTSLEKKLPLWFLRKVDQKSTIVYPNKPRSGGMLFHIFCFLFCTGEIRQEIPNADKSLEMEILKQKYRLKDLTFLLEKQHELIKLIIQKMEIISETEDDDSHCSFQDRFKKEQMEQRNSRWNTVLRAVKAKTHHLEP
row,Compound,Block of hydrogen peroxide activation of TRPA1
1,"CC(C)C=C(C=O)c1ccccc1 (single isomer, unassigned) [4-Methyl-2-phenyl-2 Pentenal (mixture of cis and trans isomers)]",Block both H2O2 and AITC on TRPA1

# Same assay, conditions: 100 μM antagonist vs 500 μM hydrogen peroxide
row,Compound,Block of hydrogen peroxide activation of TRPA1
1,"CC(S)CS (stereo not shown) [1,2-propanedithiol]",Block both H2O2 and AITC on TRPA1
2,Cc1ccc(C=O)c(O)c1 [2-hydroxy-4-methylbenzaldehyde],Block both H2O2 and AITC on TRPA1
3,COc1nccnc1CC(C)C [2-isobutyl-3-methoxypyrazine],BLOCK BOTH MENTHOL AND H2O2 ON TRPA1
4,C=CCOC(=O)CCC1CCCCC1 [allyl cyclohexanepropionate],BLOCK BOTH MENTHOL AND H2O2 ON TRPA1
5,O=C(C=Cc1ccccc1)OCc1ccccc1 [benzyl cinnamate],Block both H2O2 and AITC on TRPA1
6,CCOC(=O)CC1(C)OCCO1 [ethyl acetoacetate ethylene ketal],Block both H2O2 and AITC on TRPA1
7,C1CNCCN1 [piperazine],BLOCK BOTH MENTHOL AND H2O2 ON TRPA1

# Same assay, conditions: 400 μM antagonist vs 500 μM hydrogen peroxide
row,Compound,Block of hydrogen peroxide activation of TRPA1
1,"C=CCc1cc(OC)c(O)c(OC)c1 [4-Allyl-2,6-dimethoxyphenol]",Block both H2O2 and AITC on TRPA1
2,CCCC(=O)OCc1ccc(OC)cc1 [Anisyl Butyrate],Block both H2O2 and AITC on TRPA1

# Same assay, conditions: antagonist 400 μM against 200 μM hydrogen peroxide
row,Compound,% Reduction of Hydrogen Peroxide TRPA1 Activation [%]
1,CCCC(=O)OCc1ccc(OC)cc1 [Anisyl Butyrate],54

# Same assay, conditions: antagonist 400 μM against 200 μM hydrogen peroxide; read-out: % Reduction of Hydrogen Peroxide TRPA1 Activation
row,Compound,inhibition at 400 µM [%]
1,"C=CCc1cc(OC)c(O)c(OC)c1 [4-Allyl-2,6-dimethoxyphenol]",54

# Same assay, conditions: compound 100 μM against 200 μM hydrogen peroxide; Sets 1-4
Compound,% Reduction of Hydrogen Peroxide TRPA1 Activation [%],Average Ca++ Counts [Counts]
"CC(S)CS (stereo not shown) [1,2-propanedithiol]",68.8,2194.5
Cc1ccc(C=O)c(O)c1 [2-hydroxy-4-methylbenzaldehyde],–,3429.0
COc1nccnc1CC(C)C [2-isobutyl-3-methoxypyrazine],–,3067.5
C=CCOC(=O)CCC1CCCCC1 [allyl cyclohexanepropionate],–,3443.0
c1ccc2scnc2c1 [benzothiazole],–,5513.0
O=C(C=Cc1ccccc1)OCc1ccccc1 [benzyl cinnamate],–,4828.5
CCOC(=O)CC1(C)OCCO1 [ethyl acetoacetate ethylene ketal],–,3298.5
C1CNCCN1 [piperazine],–,2815.5

# Same assay, conditions: compound 100 μM against 200 μM hydrogen peroxide; Sets 1-4; read-out: % Reduction of Hydrogen Peroxide TRPA1 Activation
row,Compound,inhibition at 100 µM [%]
1,Cc1ccc(C=O)c(O)c1 [2-hydroxy-4-methylbenzaldehyde],51.3
2,COc1nccnc1CC(C)C [2-isobutyl-3-methoxypyrazine],56.4
3,C=CCOC(=O)CCC1CCCCC1 [allyl cyclohexanepropionate],51.1
4,c1ccc2scnc2c1 [benzothiazole],48
5,O=C(C=Cc1ccccc1)OCc1ccccc1 [benzyl cinnamate],54.4
6,CCOC(=O)CC1(C)OCCO1 [ethyl acetoacetate ethylene ketal],53.2
7,C1CNCCN1 [piperazine],60

# Biological target: T2, human TRPA1
# Test: FLIPR Ca2+ assay, block of AITC activation of TRPA1
# Format: cell-based
# Design: expressed in transfected cells
# Settings: 100 μM antagonist
# Method: Intracellular Ca^++ levels were measured using cell based assays as described for EXAMPLES 1, 2, and 3.
row,Compound,Block of AITC activation of TRPA1
1,"CC(S)CS (stereo not shown) [1,2-propanedithiol]",Block both H2O2 and AITC on TRPA1
2,Cc1ccc(C=O)c(O)c1 [2-hydroxy-4-methylbenzaldehyde],Block both H2O2 and AITC on TRPA1
3,c1ccc2scnc2c1 [benzothiazole],Block both H2O2 and AITC on TRPA1
4,O=C(C=Cc1ccccc1)OCc1ccccc1 [benzyl cinnamate],Block both H2O2 and AITC on TRPA1
5,CCOC(=O)CC1(C)OCCO1 [ethyl acetoacetate ethylene ketal],Block both H2O2 and AITC on TRPA1

# Same assay, conditions: 400 μM antagonist
row,Compound,Block of AITC activation of TRPA1
1,"CC(C)C=C(C=O)c1ccccc1 (single isomer, unassigned) [4-Methyl-2-phenyl-2 Pentenal (mixture of cis and trans isomers)]",Block both H2O2 and AITC on TRPA1
2,"C=CCc1cc(OC)c(O)c(OC)c1 [4-Allyl-2,6-dimethoxyphenol]",Block both H2O2 and AITC on TRPA1
3,CCCC(=O)OCc1ccc(OC)cc1 [Anisyl Butyrate],Block both H2O2 and AITC on TRPA1

# Biological target: T2, human TRPA1
# Test: FLIPR Ca2+ assay, reduction of L-Menthol activation of TRPA1
# Settings: 100 μM antagonist vs 1 mM L-Menthol
# Method: In order to determine whether TRPA1 is activated, the intracellular calcium ion (Ca^2+) level from transfected cells with the TRPA1 receptor gene was measured. HEK-2 cells stably transfected with human TRPA1 were grown in 15 ml growth medium [high glucose DMEM (Dulbecco's Modification of Eagle's Medium) supplemented with 10% FBS (fetal bovine serum), 100 μg/ml Penicillin/streptomycin, 100 μg/ml G418] in a 75 Cm^2 flask for 3 days at 37° C. in a mammalian cell culture incubator set at 5% CO2. Cells were detached with addition of 10 ml of PBS (phosphate buffered saline) by hand shaking gently and transferred to a 50 ml tube and centrifuged at 850 rpm for 3 minutes to remove PBS. After centrifugation, a pellet of cells was formed in the bottom of the tube separating them from the supernatant solution. […] Fluo-4 is a fluorescent dye used for quantifying cellular Ca^2+ concentrations in the 100 nM to 1 μM range.
# The pelleted cells were re-suspended in 10 ml assay buffer and 90 μl aliquots (˜50,000 cells) per well delivered to a 96-well assay plate containing 10 μl of test compounds (1 mM in assay buffer, final concentration 100 μM) or buffer control and incubated at room temperature for 30 minutes. After 30 minutes, the plate was placed into a fluorometric imaging plate reader (FLIPR384 from Molecular Devices) and basal fluorescence recorded (excitation wave length 488 nm and emission wave length 510 nm). Then 20 μl of the molecule being tested as a TRPA1 antagonist was added and fluorescence recorded. For determining the direct effect of test compounds on TRPA1, fluorescence was measured immediately after addition of each compound.
# To determine if a compound was an antagonist or a desensitizer the direct effect of a test compound was determined. For determining the direct effect of test compounds on TRPA1 receptor activation, 100 μl aliquots (˜50,000 cells) of cells prepared as described above were delivered to a 96-well assay plate and basal fluorescence recorded as noted above. Then 20 μl of the compound being tested as a TRPA1 activator was added and fluorescence recorded. If any increase in fluorescence over background was noted, then the compound was considered an agonist.
row,Compound,Block of L-Menthol activation of TRPA1
1,COc1nccnc1CC(C)C [2-isobutyl-3-methoxypyrazine],BLOCK BOTH MENTHOL AND H2O2 ON TRPA1
2,C=CCOC(=O)CCC1CCCCC1 [allyl cyclohexanepropionate],BLOCK BOTH MENTHOL AND H2O2 ON TRPA1
3,CCOC(=O)C1OC1c1ccccc1 (stereo not shown) [ethyl 3-phenylglycidate],BLOCK ONLY MENTHOL/TRPA1
4,C=CCCCC(=O)OCC [ethyl 5-hexenoate],BLOCK ONLY MENTHOL/TRPA1
5,CCCCCC(=O)OCC [ethyl hexanoate],BLOCK ONLY MENTHOL/TRPA1
6,CCCCCCCC/C=C\CCCCCCCC(=O)OCC [ethyl oleate],BLOCK ONLY MENTHOL/TRPA1
7,CCOC(=O)CC [ethyl propionate],BLOCK ONLY MENTHOL/TRPA1
8,CCC/C=C/C(=O)OCC [ethyl trans-2-hexenoate],BLOCK ONLY MENTHOL/TRPA1
9,CCCCC/C=C/CCC(=O)OCC [ethyl trans-4-decenoate],BLOCK ONLY MENTHOL/TRPA1
10,COc1cc(/C=C/C(=O)O)ccc1O [ferulic acid],BLOCK ONLY MENTHOL/TRPA1
11,CCCCCCCCCCCCCCCCOC(=O)C(C)O (stereo not shown) [hexadecyl lactate],BLOCK ONLY MENTHOL/TRPA1
12,"CCCOC(=O)CCCCC(=O)OCCC [hexanedioic acid, dipropyl ester]",BLOCK ONLY MENTHOL/TRPA1
13,CCCCCC(=O)OCC(C)C [isobutyl hexanoate],BLOCK ONLY MENTHOL/TRPA1
14,CC(C)CCOC=O [isopentyl formate],BLOCK ONLY MENTHOL/TRPA1
15,C/C=C(\C)C(=O)OC(C)C [isopropyl tiglate],BLOCK ONLY MENTHOL/TRPA1
16,COC(=O)c1ccccc1NC(C)=O [methyl 2-(acetylamino)benzoate],BLOCK ONLY MENTHOL/TRPA1

row,Compound,Block of L-Menthol activation of TRPA1
1,CCCC(C)C(=O)OC (stereo not shown) [methyl 2-methylpentanoate],BLOCK ONLY MENTHOL/TRPA1
2,COC(=O)CCSC [methyl 3-(methylthio)propionate],BLOCK ONLY MENTHOL/TRPA1
3,CCCCCCCCSC [methyl n-octyl sulfide],BLOCK ONLY MENTHOL/TRPA1
4,COC(=O)c1cccnc1 [methyl nicotinate],BLOCK ONLY MENTHOL/TRPA1
5,COc1ccccc1C [o-methylanisole],BLOCK ONLY MENTHOL/TRPA1
6,CCCCCCCC=O [octanal],BLOCK ONLY MENTHOL/TRPA1
7,C1CNCCN1 [piperazine],BLOCK BOTH MENTHOL AND H2O2 ON TRPA1
8,CCC/C=C/COC(=O)CC [propionic acid trans-2-hexen-1-yl ester],BLOCK ONLY MENTHOL/TRPA1
9,CCCOC(=O)C(C)=O [propyl pyruvate],BLOCK ONLY MENTHOL/TRPA1
10,CC(=O)C=O [pyruvic aldehyde],BLOCK ONLY MENTHOL/TRPA1
11,C=C[C@H]1C[N@@]2CC[C@H]1C[C@H]2[C@H](O)c1ccnc2ccc(OC)cc12 [quinine hydrochloride dihydrate],BLOCK ONLY MENTHOL/TRPA1
12,CCC(C)SSC(C)CC (stereo not shown) [sec-butyl disulfide],BLOCK ONLY MENTHOL/TRPA1
13,CC(=O)OCC1CCCO1 (stereo not shown) [tetrahydrofurfuryl acetate],BLOCK ONLY MENTHOL/TRPA1
14,CCC/C=C/COC(C)=O [trans-2-hexenyl acetate],BLOCK ONLY MENTHOL/TRPA1
15,iron naphthenate,BLOCK ONLY MENTHOL/TRPA1
